{"source": "patent US12569563B2", "about": "“Selective HDAC6 degraders and methods of use thereof” (DANA-FARBER CANCER INSTITUTE, INC., priority 2019, dated 2026)", "key": {"[1]": {"target": "T1, HDAC6 (Homo sapiens, UniProt Q9UBN7)", "T1 sequence (Q9UBN7 1-1215)": "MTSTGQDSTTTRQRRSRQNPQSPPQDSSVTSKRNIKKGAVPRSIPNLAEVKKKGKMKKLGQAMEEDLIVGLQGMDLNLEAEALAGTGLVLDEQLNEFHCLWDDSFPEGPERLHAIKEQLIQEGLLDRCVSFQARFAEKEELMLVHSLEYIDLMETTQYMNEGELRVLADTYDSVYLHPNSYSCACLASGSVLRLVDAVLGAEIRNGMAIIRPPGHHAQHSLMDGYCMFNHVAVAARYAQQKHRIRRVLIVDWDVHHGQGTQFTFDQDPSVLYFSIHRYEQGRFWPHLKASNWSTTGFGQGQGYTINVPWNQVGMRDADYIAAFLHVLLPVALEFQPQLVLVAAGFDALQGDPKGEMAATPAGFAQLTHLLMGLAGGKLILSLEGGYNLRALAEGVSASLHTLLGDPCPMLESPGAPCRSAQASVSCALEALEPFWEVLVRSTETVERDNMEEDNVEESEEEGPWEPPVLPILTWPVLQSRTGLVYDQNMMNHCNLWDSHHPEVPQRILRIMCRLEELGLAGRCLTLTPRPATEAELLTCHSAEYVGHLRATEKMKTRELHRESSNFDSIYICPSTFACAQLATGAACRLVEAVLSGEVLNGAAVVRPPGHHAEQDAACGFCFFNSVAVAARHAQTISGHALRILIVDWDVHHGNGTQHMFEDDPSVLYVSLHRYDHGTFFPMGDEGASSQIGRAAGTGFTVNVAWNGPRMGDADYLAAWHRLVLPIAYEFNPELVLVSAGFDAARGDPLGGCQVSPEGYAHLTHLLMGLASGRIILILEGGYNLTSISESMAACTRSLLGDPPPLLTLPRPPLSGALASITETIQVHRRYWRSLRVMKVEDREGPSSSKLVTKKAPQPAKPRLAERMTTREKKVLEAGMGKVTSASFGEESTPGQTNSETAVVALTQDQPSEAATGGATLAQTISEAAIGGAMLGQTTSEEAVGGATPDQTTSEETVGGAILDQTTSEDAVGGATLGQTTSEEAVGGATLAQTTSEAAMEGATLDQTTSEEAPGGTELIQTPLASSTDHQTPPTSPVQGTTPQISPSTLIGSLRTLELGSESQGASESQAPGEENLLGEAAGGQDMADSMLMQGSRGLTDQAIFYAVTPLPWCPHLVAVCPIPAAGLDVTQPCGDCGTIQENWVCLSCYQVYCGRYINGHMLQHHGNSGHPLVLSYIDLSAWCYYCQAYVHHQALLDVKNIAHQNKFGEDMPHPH", "assay": "Multiplexed TMT mass spectrometry proteomics in Kelly cells, HDAC6 abundance", "type": "cell-based", "parameters": "endogenous in cells; host or cells: Kelly cells", "protocol": "(§1) Lysis buffer (8 M Urea, 50 mM NaCl, 50 mM 4-(2hydroxyethyl)-1-piperazineethanesulfonic acid (EPPS) pH 8.5, protease and phosphatase inhibitors from Roche®) were added to the cell pellets and homogenized by 20 passes through a 21 gauge (1.25 in. long) needle to achieve a cell lysate with a protein concentration between 1-4 mg mL^−1. A micro-BCA assay (Pierce™) was used to determine the final protein concentration in the cell lysate. 200 μg of protein for each sample were reduced and alkylated as described above.\nProteins were precipitated using methanol/chloroform. Four volumes of methanol were added to the cell lysate, followed by one volume of chloroform, and finally three volumes of water. The mixture was vortexed and centrifuged to separate the chloroform phase from the aqueous phase. The precipitated protein was washed with three volumes of methanol, centrifuged and the resulting washed precipitated protein was allowed to air dry. The precipitated protein was resuspended in 4 M Urea, 50 mM HEPES pH 7.4, followed by dilution to 1 M urea with the addition of 200 mM EPPS, pH 8. Proteins were first digested with LysC (1:50; enzyme:protein) for 12 hours at room temperature. The LysC digestion was diluted to 0.5 M Urea with 200 mM EPPS pH 8 followed by digestion with trypsin (1:50; enzyme:protein) for 6 hours at 37° C. Tandem mass tag (TMT) reagents (Thermo Fisher Scientific™) were dissolved in anhydrous acetonitrile (ACN) according to manufacturer's instructions.\n(§2) Anhydrous ACN was added to each peptide sample to a final concentration of 30% v/v, and labeling was induced with the addition of TMT reagent to each sample at a ratio of 1:4 peptide:TMT label. […] The sample channels were combined at a 1:1:1:1:1:1:1:1:1:1:1 ratio, desalted using Cis solid phase extraction cartridges (Waters) and analyzed by LC-MS for channel ratio comparison. Samples were then combined using the adjusted volumes determined in the channel ratio analysis and dried down in a speed vacuum. […]"}, "[2]": {"test_system": "other identified HDAC proteins", "assay": "Multiplexed TMT mass spectrometry proteomics in Kelly cells, other HDAC abundance", "type": "cell-based, human", "conditions": "1 μM, 2, 4, 8, and 16 hours", "protocol": "as §1\nProteins were precipitated using methanol/chloroform. Four volumes of methanol were added to the cell lysate, followed by one volume of chloroform, and finally three volumes of water. The mixture was vortexed and centrifuged to separate the chloroform phase from the aqueous phase. […]\nas §2"}}}
{"smiles": "CN(C(=O)CCCNc1cccc2c1C(=O)N(C1CCC(=O)NC1=O)C2=O)c1ccc(NC(=O)CCCCCCC(=O)NO)cc1", "note": "(stereo not shown) [Compound 1, N^1-(4-(4-((2-(2,6-dioxopiperidin-3-yl)-1,3-dioxoisoindolin-4-yl)amino)-N-methylbutanamido)phenyl)-N^8-hydroxyoctanediamide]", "values": [{"measurement": "change in cellular HDAC6 protein levels vs DMSO (heat map FIG. 5)", "setting": "[1]; 1 μM, 2, 4, 8, and 16 hours", "result": "induced down regulation of cellular HDAC6 protein levels"}, {"measurement": "change in HDAC6 protein levels vs DMSO, time course (FIG. 4)", "setting": "[1]; 1 μM, after 2 hours", "result": "significant reduction in HDAC6 protein levels"}, {"measurement": "course of HDAC6 protein levels, time course (FIG. 4)", "setting": "[1]; 1 μM, over the course of 16 hours", "result": "continued to decrease"}, {"measurement": "change in cellular protein levels of other identified HDAC proteins (heat map FIG. 5)", "setting": "[2]", "result": "did not affect the cellular protein levels of the other identified HDAC proteins"}]}
